Experimental data as given in US6949679B1, “Polyamine transport inhibitors” (Universite Laval, priority 1998, dated 2005).

How the values were obtained:
[1] = system: ZR-75-1 cells; assay: Reversal of DFMO-induced growth inhibition by exogenous spermidine; format: cell-based, human; conditions: 50 μM DESC, DESC:spermidine ratio up to 500
Description: For growth studies, ZR-75-1 cells were cultured in MEZR medium or in phenol red-free RPMI 1640 supplemented with 2 mM L-glutamine, 1 mM sodium pyruvate, 15 mM Hepes, antibiotics, 1 nM 17β-estradiol, 0.5 μg of bovine insulin per ml and 5% (v/v) charcoal-treated fetal bovine serum (SD medium), as indicated in the text. When polyamines or polyamine analogs were added to serum-containing media, 1 mM aminoguanidine was added to inhibit bovine serum amine oxidase (BSAO) activity (Morgan, D. M. L. 1989, in The Physiology of Polyamines (Bachrach, U., and Heimer, Y. M. eds) Vol. I, pp. 203-229, CRC Press, Boca Raton). The effect of the transport inhibitors on cell growth was measured by incubating ZR-75-1 cells for 11 days in medium supplemented with antagonist, polyamines and/or 1 mM DFMO as indicated, followed by colorimetric determination of DNA content with 3,4-diaminobenzoic acid (Simard, J., Dauvois, S., Haagensen, D. E., Lėvesque C., Mėrand, Y. and Labriė, F. 1990. Endocrinology 126: 3223-3231).
This possibility was assessed by comparing the ability of DESC to prevent the reversal of DFMO-induced growth inhibition by increasing concentrations of exogenous spermidine.

[2] = Stability in biological media (cell-free, HPLC); format: physicochemical; conditions: IMEM, 48 hours, 37° C.
Description: DESC stability was tested by incubating the compound dissolved (at 50 μM) in PBS or in IMEM medium containing 10% (v/v) fetal bovine serum plus or minus 1 mM aminoguanidine in a humid 5% CO2 atmosphere at 37° C. and in the absence of cells. At indicated times, trichloroacetic acid was added to aliquots of this solution to a final concentration 10% (w/v) and the samples directly analyzed by HPLC as above.
The inability of DESC to block the biological effect of exogenous spermidine, even when present at large molar excesses, might have been caused by its degradation in growth media. To assess this hypothesis, DESC solutions (20 μM) made in PBS or in sterile IMEM medium enriched with 10% (v/v) FBS were incubated for 20 minutes or 48 hours under cell-free conditions at 37° C. in a humid 5% CO2 atmosphere, and the polyamine analog was then analyzed by ion-pair reversed-phase HPLC. After 48 hours, degradation of DESC to two new amine-containing derivatives occurred in IMEM (FIG. 9A, B) but not in PBS (FIG. 9C), as evidenced by the appearance of a major (compound 1) and minor (compound 2) peaks of o-phthaldialdehyde-reactive material eluting earlier than DESC. […] After 48 hours, i.e. the interval at which freshly made DESC-containing media were added to cell cultures in growth experiments, 40% of the DESC originally present had been decomposed by IMEM. […]

[3] = MESC: amino group neighboring the amide linkage; cited from earlier work

SMILES | Ability to prevent reversal of DFMO-induced growth inhibition by spermidine [1] | DESC originally present decomposed [2] [%] | pKa of secondary amino group of the spermine head [3]
NCCCNCCCC(NCCCN)C(=O)NCCSSCCNC(=O)C(CCCNCCCN)NCCCN (stereo not drawn) [DESC, 2,2′-dithiobis(N-ethyl-spermine-5-carboxamide)] | unable to prevent the reversal | 40 | –
NCCCNCCCC(NCCCN)C(=O)NCCS (stereo not drawn) [MESC, N-(2-mercaptoethyl)spermine-5-carboxamide] | – | – | 5.5
